The source of these data is article PMC7814183, “Supramolecular polymerization of sulfated dendritic peptide amphiphiles into multivalent L-selectin binders” (Beilstein Journal of Organic Chemistry, 2021).

In data set [1] the target is T1, L-selectin (Homo sapiens, UniProt P14151).
T1 construct: purchased R&D Systems, Minneapolis, USA
Briefly: competitive SPR L-selectin binding (inhibition) assay. The following applies: competitive SPR (BIAcore X); L-selectin/Fc chimera on protein A-coated 15 nm gold nanoparticles preincubated with analyte; chip with immobilized sulfated tyrosine/sialyl-Lewis X ligand; HEPES 0.020 M pH 7.4, 0.150 M NaCl, 0.001 M CaCl2; sigmoidal fit. How it is done:
The L-selectin binding behavior of the sulfated supramolecular polymer resulting from II was assessed using a competitive surface plasmon resonance (SPR) binding assay, whereby neutral supramolecular polymers of I were used as control experiment. L-Selectin-coated gold nanoparticles were incubated with analyte solutions of different concentrations and subsequently probed on an SPR-chip modified with immobilized sulfated tyrosine and sialyl-Lewis^X as model ligands. The resulting signal is referenced to a control experiment lacking the preincubation of L-selectin particles. Figure 3 summarizes the resulting dose–response curves.
Figure 3 Concentration-dependent relative L-selectin binding of the supramolecular polymers I and II in HEPES buffer (0.020 M, pH 7.4, with 0.150 M NaCl and 0.001 M CaCl2) measured by SPR. L-Selectin-coated nanoparticles were preincubated with solutions of the supramolecular polymers. […]
(Quantifoil R1/4) at room temperature. […]
autoloader protocol. The micrographs were recorded under low -dose conditions with a primary
magnification of 28000x and an acceleration voltage of 200 kV. The images were recorded by […]
Minneapolis, USA), and the binding signal to the artificial ligand was recorded. […]
taken, which yielded the respective dose–response curves. The IC50 values were determined […]
Background: Surface plasmon resonance follows binding to a sensor surface in real time, without labels.

Data set [2] in a line: CD spectroscopy, ionic strength-dependent titration of self-assembly. Type of data set: physicochemical. The following applies: 25 µM solution in 20 mM TRIS, pH 7.4; CD band around 218 nm. The source says:
The self-assembly behavior of the peptide-based materials can be readily investigated using CD spectroscopy. The supramolecular polymerization strongly relies on the formation of secondary structure elements, leading to ordered domains that lead to characteristic CD band spectra. By probing aqueous solutions of I at different concentrations in H2O, a strongly negative CD band at around λ ≈ 220 nm became apparent (Figure 1A). In the past we have assigned this characteristic CD band to a β-sheet-dominated short-range ordering of oligopeptide monomers, which is stable over a wide concentration range [30, 39–40].
Attaching functional groups to the dendritic peptide amphiphiles – and thus the supramolecular polymers – by exchanging one of the shielding dendritic tetra(ethylene glycol) dendrons is important with regard to potential applications. However, depending on the nature of the functional groups, the influence on the self-assembly behavior may not be neglected. In the present work, the installation of a sulfated oligoglycerol dendron introduces eight anionic charges to the periphery of the peptide amphiphile II that possibly counteracts the β-sheet-driven self-assembly due to electrostatic repulsion. CD spectroscopic experiments based on 25 µM or 50 µM solutions of II in 20 mM TRIS as well as PBS buffer support this notion (Figure 2A and Figure S2 in Supporting Information File 1). […]

Data set [3] is described as follows: TEM of negatively stained solutions (self-assembly morphology). Type of data set: physicochemical. The following applies: TEM (25 µM, TRIS 20 mM pH 7.4, 100 mM NaCl) and cryo-TEM (50 µM, PBS (-/-) pH 7.4, 100 mM NaCl). How it is done: The application of transmission electron microscopy (TEM) gave further insight into the morphology of the assemblies induced by the secondary structure formation (Figure 1). All samples for convential TEM imaging were prepared by placing 5 μL of the aqueous solution on a sample grid for 1 min, followed by the removal of the excess liquid using a filter paper and subsequent negative staining using a 2% uranyl acetate solution. By analyzing a 25 μM aqueous solution of I, long rigid anisotopic rod-like structures with lengths of 200–400 nm could be visualized (Figure 1B and 1C), in agreement with our previously reported findings. […] The copresence of shorter, more flexible structures could be seen as well. […] Since the morphology of the aqueous supramolecular polymers observed in dry TEM can be influenced by the sample preparation, cryo-TEM experiments were furthermore performed in order to visualize the assemblies in a native state (Figure 1D and Figure S1 in Supporting Information File 1). The presence of straight nanorods of over 200 nm in length with a high degree of lateral order could be observed, thus corroborating the interpretations from dry TEM experiments.
In order to compare the morphology of the self-assembled sulfated compound II with the TEG-decorated compound I, TEM and cryo-TEM experiments were performed (Figure 2B and 2C). […]

Data set [4] concerns the target T1, L-selectin. The following applies: literature comparison values; read-out: IC50, L-selectin binding; cited from earlier work. The source says: However, the densely sulfated dendritic polyglycerol of similar molecular weight is able to bind in the ...

Read-outs that look alike come from different tables or passages of the source. Bounds are passed on as bounds.

T1 sequence (P14151 with tags, fused parts or gaps limits assumed, species assumed): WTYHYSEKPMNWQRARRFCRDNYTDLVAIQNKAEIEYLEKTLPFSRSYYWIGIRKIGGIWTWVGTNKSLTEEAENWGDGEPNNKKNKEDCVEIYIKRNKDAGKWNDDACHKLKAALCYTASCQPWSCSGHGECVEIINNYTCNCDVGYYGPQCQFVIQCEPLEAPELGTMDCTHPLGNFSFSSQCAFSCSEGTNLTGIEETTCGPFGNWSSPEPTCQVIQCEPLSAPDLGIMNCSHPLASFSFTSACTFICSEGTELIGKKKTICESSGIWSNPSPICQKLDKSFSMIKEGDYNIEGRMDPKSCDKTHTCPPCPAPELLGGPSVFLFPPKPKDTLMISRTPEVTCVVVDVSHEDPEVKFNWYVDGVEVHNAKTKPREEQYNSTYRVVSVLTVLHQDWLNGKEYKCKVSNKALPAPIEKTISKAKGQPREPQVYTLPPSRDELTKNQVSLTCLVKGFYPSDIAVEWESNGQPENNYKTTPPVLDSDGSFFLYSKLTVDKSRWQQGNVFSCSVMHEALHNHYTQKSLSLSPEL

As for `COCCOCCOCCOCCOCC(COCCOCCOCCOCCOC)(COCCOCCOCCOCCOC)NC(=O)CCCCCNC(=O)[C@H](Cc1ccccc1)NC(=O)[C@H](Cc1ccccc1)NC(=O)[C@H](Cc1ccccc1)NC(=O)c1cc(C(=O)N[C@@H](Cc2ccccc2)C(=O)N[C@@H](Cc2ccccc2)C(=O)N[C@@H](Cc2ccccc2)C(=O)NCCCCCC(=O)NC(COCCOCCOCCOCCOC)(COCCOCCOCCOCCOC)COCCOCCOCCOCCOC)cc(C(=O)N[C@@H](Cc2ccccc2)C(=O)N[C@@H](Cc2ccccc2)C(=O)N[C@@H](Cc2ccccc2)C(=O)NCCCCCC(=O)NC(COCCOCCOCCOCCOC)(COCCOCCOCCOCCOC)COCCOCCOCCOCCOC)c1` [I], at L-selectin [1], the IC50 (usually the concentration needed to halve the response being measured) came to 5 µM.

`COCCOCCOCCOCCOCC(COCCOCCOCCOCCOC)(COCCOCCOCCOCCOC)NC(=O)CCCCCNC(=O)[C@H](Cc1ccccc1)NC(=O)[C@H](Cc1ccccc1)NC(=O)[C@H](Cc1ccccc1)NC(=O)c1cc(C(=O)N[C@@H](Cc2ccccc2)C(=O)N[C@@H](Cc2ccccc2)C(=O)N[C@@H](Cc2ccccc2)C(=O)NCCCCCC(=O)NCCOCCNC(=O)Cn2cc(COC(COC(COC(COS(=O)(=O)O)COS(=O)(=O)O)COC(COS(=O)(=O)O)COS(=O)(=O)O)COC(COC(COS(=O)(=O)O)COS(=O)(=O)O)COC(COS(=O)(=O)O)COS(=O)(=O)O)nn2)cc(C(=O)N[C@@H](Cc2ccccc2)C(=O)N[C@@H](Cc2ccccc2)C(=O)N[C@@H](Cc2ccccc2)C(=O)NCCCCCC(=O)NC(COCCOCCOCCOCCOC)(COCCOCCOCCOCCOC)COCCOCCOCCOCCOC)c1` [II]: the “added NaCl at which the characteristic β-sheet CD signature is restored” value in data set [2] was > 100 mM. For the same compound, in data set [3], the “length of long rigid rods” value is reported as “several hundred nanometers”. unfractionated heparin: the IC50 on L-selectin [4] is 12 µM.
